# Results from patent US9446063B2, “Methods for treating type-2 diabetes and obesity” (priority 2009, dated 2016).
# Where two headings read alike, the source gives them in different places. Marks after values point to notes of the source that are not given here.
# Legend:
# [1] = tested on: potato microtubers of cvs. Onaway and Goldrush; details: for Increase of ascorbic acid content in comparison to control: cv. Goldrush microtubers; for Ascorbic acid of microtubers / Caffeic acid of microtubers / Chlorogenic acid of microtubers: mean ± SE (n = 5)
# Description: (§1) Based on a preliminary study, concentrations of 2 and 4 mM H2O2 and spray volume of ˜6 ml were selected for hormetic treatments. Phase II plantlets of cvs. Onaway and Goldrush (at 2- and 3-weeks) were treated with three concentrations (0, 2, 4 mM) of H2O2 with 5 replicates×4 containers per replicate (20 containers per treatment). Results were analyzed for variance (ANOVA) test using General Linear Model (GLM) of Statistical Analysis System (SAS) (SAS v 9.2, 2010) (SAS Institute Inc., Cary, N.C., USA). Means were compared using Duncan's Multiple Comparison test (P≦0.05).
# (§2) At harvest, microtubers of cvs. Onaway and Goldrush were weighed, and averaged from 20 separate containers. For each replicate, microtubers were pooled for analysis, for a total of 5 samples per treatment/cultivar.
# [2] = tested on: potato microtubers of cvs. Onaway and Goldrush; experiment: H2O2 hormesis: microtuber mass / yield; details: for Microtuber mass: mean of 20 containers
# Description: (1994). […] Cultures were placed into a growth chamber adjusted to 20±2° C. under 85 μmol m^-2s^-1 cool white florescent illumination with 16:8 h day:night cycle. Phase I promoted the vegetative growth of plantlets which was luxurious after 4 weeks. In Phase II, the residual medium was drained and replaced with 150 ml of liquid induction medium containing increased sucrose (80 gl^-1) and no growth regulators. Phase II incubation occurred at cooler temperature (15±2° C.), under reduced illumination (50 μmol m^-2s^-1), and reversed (8:16 h) day:night cycle. […] Phase II plantlets of cvs. […] At harvest, microtubers of cvs. […] (2007).
# [3] = tested on: potato microtubers of cvs. Onaway and Goldrush; experiment: H2O2 hormesis: total phenolic content of microtubers (Folin-Ciocalteu); details: for Total phenolics (Folin-Ciocalteu) of microtubers: mean ± SE (n = 5)
# Description: as §1, §2
# [4] = tested on: potato microtubers of cvs. Onaway and Goldrush; experiment: H2O2 hormesis: antioxidant capacity (DPPH) of in vitro-grown microtubers; details: for DPPH total antioxidant capacity of microtubers: mean ± SE (n = 5)
# Description: Plantlets of cvs. Onaway and Goldrush were selected for their relatively high concentrations of antioxidants in field-grown tubers. […] Medium consisted of basal salt solution and organic fraction solidified with 7 g 1^-1 agar ([…]) adjusted to pH 5.7 before autoclaving at 121° C. for 20 min. […] (1994). […] Phase I promoted the vegetative growth of plantlets which was luxurious after 4 weeks. In Phase II, the residual medium was drained and replaced with 150 ml of liquid induction medium containing increased sucrose (80 gl^-1) and no growth regulators. […] Phase II plantlets of cvs. […] At harvest, microtubers of cvs. […] (2007).
# [5] = HPLC quantification of ascorbic acid, chlorogenic acid, caffeic acid, ferulic acid and rutin in tubers, tuber tissues and extracts; details: for % reduction; from 1 to 7 months storage (HPLC content): tubers of 12 Canadian-grown cultivars, cold storage
# Description: This assay was based on the method developed by Shakya and Navarre (J Agric Food Chem (2006) 54:5253-5260). Initially, samples (50 mg of freeze-dried powder) were extracted in 0.9 mL of extraction buffer (50% MeOH, 2.5% metaphosphoric acid, 1 mM EDTA) in a 2 mL screw cap tube. Samples were vortexed for 30 sec and centrifuged at 11,070×g for 15 min at 4° C. The supernatant was transferred to a 1.5 mL glass vial. The remaining pellet was re-extracted with 0.6 mL of extraction buffer and centrifuged. The supernatants were combined and concentrated in a Speed Vac (Thermo Savant SC 210A, Waltham, Mass.). The concentrated samples were solubilised with 500 mL of extraction buffer and filtered using 0.45 mm membrane filters (Durapore, PVDF) into 1 mL HPLC glass vials. Samples were kept chilled at all times and shielded from bright light. Samples were analyzed using a Varian HPLC system with a quaternary gradient pump, a single wavelength UV/VIS detector, and an autosampler with refrigerated sample compartment (Varian Canada Inc, Mississauga, ON). Samples were eluted using an Onyx reverse-phase HPLC column (100×4.5 mm) (Phenomenex, Netherlands), a solvent flow rate of 2 mL/min and a solvent gradient of 0-1 min 100% buffer A (10 mM formic acid, pH 3.5, with NH4OH), 1-5 min 0-30% buffer B (100% methanol with 5 mM ammonium formate), 5-6.5 min 40-0% buffer B, 6.5-8.5 min 70-100% buffer B. The phenolic acids in the samples were analyzed qualitatively and quantitatively using standards.
# Ascorbic acid concentration was also determined as it is also an important antioxidant compound present in potato. HPLC determination is based on the retention time of a particular compound within a mixed sample in the column compared with purchased pure standards. Three different buffers (Buffer A, Buffer B, & Extraction buffer) were prepared. Buffer A was 10 mM formic acid (Fisher Scientific, ON, Canada) (0.46 g of formic acid in 1 L distilled water adjusted to pH 3.5 using 1M NH4OH solution). Buffer A was kept in a fridge (4° C.) until used. Buffer B was 5 mM ammonium formate (Sigma-Aldrich Chemicals, Germany) (0.32 g of ammonium formate in 1 L 100% methanol with agitation on a magnetic stirrer as ammonium formate is highly insoluble). Buffer B was also refrigerated. The extraction buffer was 50% methanol (Fisher Scientific, ON, Canada), 2.5% metaphosphoric acid (Aldrich Chemicals, WI, USA) and 1 mM ethylenediaminetetraacetic acid (EDTA; Sigma-Aldrich Chemicals, Germany) (50 ml of 100% methanol, 2.5 g of metaphosphoric acid, and 0.4 g of EDTA in 100 ml distilled water with stirring followed by filtering using a cup filter (Millipore Corporation, MS, USA). The extraction buffer was also refrigerated. […]
# [6] = tested on: IL-8 release in Caco-2 cell cultures; details: cited from earlier work
# male mice = details: high fat diet, 1 g/kg diet; cited from earlier work
# [7] = tested on: C57BL/6J mice with diet-induced obesity; experiment: Body weight gain in high fat diet feeding study (10 wk); type: in vivo; details: for Body weight gain: mean ± SD (n = 3-5)
# [8] = tested on: carnitine palmitoyltransferase; details: cited from earlier work
# [9] = tested on: C57BL/6J mice with diet-induced obesity; experiment: Blood glucose concentration at the end of the HFD feeding period; details: mean ± SD (n = 3-5)
# [10] = Females, HFD + 1X (1x CGA 8 mg/kg HFD; 1x FA 20 mg/kg HFD)
# [11] = Females, HFD + 5X (1x CGA 8 mg/kg HFD; 1x FA 20 mg/kg HFD)
# [12] = Females, HFD + 25X (1x CGA 8 mg/kg HFD; 1x FA 20 mg/kg HFD)
# [13] = Males, HFD + 1X (1x CGA 8 mg/kg HFD; 1x FA 20 mg/kg HFD)
# [14] = Males, HFD + 5X (1x CGA 8 mg/kg HFD; 1x FA 20 mg/kg HFD)
# [15] = Males, HFD + 25X (1x CGA 8 mg/kg HFD; 1x FA 20 mg/kg HFD)
smiles,measurement,setting,value
"OO [H2O2, Hydrogen peroxide]",Increase of ascorbic acid content in comparison to control,[1]; 2 mM,35%
same,Increase of ascorbic acid content in comparison to control,[1]; 4 mM,34%
same,Effect on microtuber caffeic acid content,"[1]; cv. Goldrush, 2 mM",significant depression
same,Increase of microtuber chlorogenic acid content,"[1]; cv. Goldrush, 2 mM",16.8%
same,Ascorbic acid of microtubers,"[1]; cv. Goldrush, 2 mM H2O2 spray",0.269 ± 0.03^a mg/g
same,Caffeic acid of microtubers,"[1]; cv. Goldrush, 2 mM H2O2 spray",0.008 ± 0.00^b mg/g
same,Chlorogenic acid of microtubers,"[1]; cv. Goldrush, 2 mM H2O2 spray",0.561 ± 0.02^a mg/g
same,Ascorbic acid of microtubers,"[1]; cv. Goldrush, 4 mM H2O2 spray",0.265 ± 0.00^a mg/g
same,Caffeic acid of microtubers,"[1]; cv. Goldrush, 4 mM H2O2 spray",0.011 ± 0.00^a mg/g
same,Chlorogenic acid of microtubers,"[1]; cv. Goldrush, 4 mM H2O2 spray",0.460 ± 0.02^b mg/g
same,Treatment effect on ascorbic acid content,[1]; cv. Onaway microtubers,not significant
same,Increase of microtuber chlorogenic acid content,"[1]; cv. Onaway, 2 mM",17.3%
same,Ascorbic acid of microtubers,"[1]; cv. Onaway, 2 mM H2O2 spray",0.170 ± 0.02^a mg/g
same,Caffeic acid of microtubers,"[1]; cv. Onaway, 2 mM H2O2 spray",0.002 ± 0.00^a mg/g
same,Chlorogenic acid of microtubers,"[1]; cv. Onaway, 2 mM H2O2 spray",0.304 ± 0.02^a mg/g
same,Ascorbic acid of microtubers,"[1]; cv. Onaway, 4 mM H2O2 spray",0.164 ± 0.02^a mg/g
same,Caffeic acid of microtubers,"[1]; cv. Onaway, 4 mM H2O2 spray",0.001 ± 0.00^b mg/g
same,Chlorogenic acid of microtubers,"[1]; cv. Onaway, 4 mM H2O2 spray",0.265 ± 0.04^ab mg/g
same,Effect on microtuber yield,"[2]; at the dosage applied (2, 4 mM)",did not affect yield
same,Microtuber mass,"[2]; cv. Goldrush, 2 mM H2O2 spray",10.25^a g
same,Microtuber mass,"[2]; cv. Goldrush, 4 mM H2O2 spray",10.26^a g
same,Microtuber mass,"[2]; cv. Onaway, 2 mM H2O2 spray",5.09^a g
same,Microtuber mass,"[2]; cv. Onaway, 4 mM H2O2 spray",5.07^a g
same,Total phenolics (Folin-Ciocalteu) of microtubers,"[3]; cv. Goldrush, 2 mM H2O2 spray",7.076 ± 0.01^a mg/g
same,Total phenolics (Folin-Ciocalteu) of microtubers,"[3]; cv. Goldrush, 4 mM H2O2 spray",6.354 ± 0.00^a mg/g
same,Total phenolics (Folin-Ciocalteu) of microtubers,"[3]; cv. Onaway, 2 mM H2O2 spray",4.376 ± 0.00^a mg/g
same,Total phenolics (Folin-Ciocalteu) of microtubers,"[3]; cv. Onaway, 4 mM H2O2 spray",3.789 ± 0.00^a mg/g
same,Effect on total polyphenolic levels (Folin-Ciocalteu),"[3]; either cultivar, 2 and 4 mM",not significantly affected
same,Increase of antioxidant capacity (DPPH) over control,"[4]; cv. Goldrush microtubers, 2 mM H2O2 spray",26%
same,Increase of antioxidant capacity (DPPH) over control,"[4]; cv. Goldrush microtubers, 4 mM H2O2 spray",20%
same,DPPH total antioxidant capacity of microtubers,"[4]; cv. Goldrush, 2 mM H2O2 spray",1.316 ± 0.02^a mg/g
same,DPPH total antioxidant capacity of microtubers,"[4]; cv. Goldrush, 4 mM H2O2 spray",1.214 ± 0.04^b mg/g
same,Increase of antioxidant capacity (DPPH) over control,"[4]; cv. Onaway microtubers, 2 or 4 mM H2O2",12-14%
same,DPPH total antioxidant capacity of microtubers,"[4]; cv. Onaway, 2 mM H2O2 spray",0.862 ± 0.02^a mg/g
same,DPPH total antioxidant capacity of microtubers,"[4]; cv. Onaway, 4 mM H2O2 spray",0.882 ± 0.04^a mg/g
O=C1O[C@H]([C@@H](O)CO)C(O)=C1O [ascorbic acid],% reduction of ascorbic acid with storage,"[5]; tubers of 5 foreign cultivars, 1 to 7 months storage",36.09%
same,% reduction; from 1 to 7 months storage (HPLC content),[5],80.48%
O=C(O)/C=C/c1ccc(O)c(O)c1 [caffeic acid],Dose needed to suppress IL-8 secretion to levels seen in control cultures,[6],2000 µM
same,% reduction; from 1 to 7 months storage (HPLC content),[5],92.16%
O=C(/C=C/c1ccc(O)c(O)c1)O[C@@H]1C[C@](O)(C(=O)O)C[C@@H](O)[C@H]1O [chlorogenic acid],Dose needed to suppress IL-8 secretion to levels seen in control cultures,[6],2000 µM
same,Effect on body weight gain,male mice,no effect on body weight gain
same,Body weight gain,[7]; [10],9.7 ± 4.9^a g
same,Body weight gain,[7]; [11],7.6 ± 4.1^a g
same,Body weight gain,[7]; [12],9.8 ± 3.4^a g
same,Body weight gain,[7]; [13],22.4 ± 0.8^b g
same,Body weight gain,[7]; [14],"18.2 ± 4.1^a,b,c g"
same,Body weight gain,[7]; [15],8.8 ± 5.3^c g
same,Effect of pure compound on body weight,"[7]; female mice, up to 200 mg/kg diet",no statistically significant effect
same,Effect of pure compound on body weight gain,"[7]; male mice, 8-200 mg/kg diet",did not affect body weight gain
same,Carnitine palmitoyltransferase activity,[8],unaffected
COc1cc(/C=C/C(=O)O)ccc1O [ferulic acid],% reduction; from 1 to 7 months storage (HPLC content),[5],90.21%
same,Body weight gain,[7]; [10],9.7 ± 3.4^a g
same,Body weight gain,[7]; [11],6.3 ± 1.2^a g
same,Body weight gain,[7]; [12],8.8 ± 5.0^a g
same,Body weight gain,[7]; [13],"12.4 ± 3.7^a,b,c g"
same,Body weight gain,[7]; [14],"10.8 ± 2.3^a,b,c g"
same,Body weight gain,[7]; [15],"11.0 ± 6.5^a,b,c g"
same,Effect of pure compound on body weight gain,"[7]; both sexes, up to 500 mg/kg diet",ineffective in suppressing body weight gain
same,Fasting blood glucose,[9]; [10],3.8 ± 0.6^a mmol/L
same,Fasting blood glucose,[9]; [11],6.9 ± 1.1^a mmol/L
same,Fasting blood glucose,[9]; [12],4.7 ± 1.6^a mmol/L
same,Fasting blood glucose,[9]; [13],5.2 ± 0.6^b mmol/L
same,Fasting blood glucose,[9]; [14],6.1 ± 1.2^a mmol/L
same,Fasting blood glucose,[9]; [15],5.4 ± 0.2^b mmol/L
O=C(/C=C/c1ccc(O)c(O)c1)O[C@@H]1C[C@@](O)(C(=O)O)C[C@@H](O)[C@@H]1O [neochlorogenic acid],Carnitine palmitoyltransferase activity,[8],enhanced
